This is an account of results in patent US8871753B2, “Macrocyclic compounds and their use as kinase inhibitors” (Incyte Corporation, priority 2008, dated 2014).

Counter-ions that a name gives are not always drawn. Like-named read-outs stand apart in the source and are kept apart here. Some results are limits rather than exact numbers.

As a reminder, the IC50 is the point on the concentration scale where inhibition reaches its midpoint.

Holding throughout (format): biochemical
For assay [1], the target named is T1, Recombinant Human Anaplastic Lymphoma Kinase (Homo sapiens, UniProt Q9UM73).
T1 construct: purchased Invitrogen, Carlsbad, Calif
T1 sequence (Q9UM73 19-1620): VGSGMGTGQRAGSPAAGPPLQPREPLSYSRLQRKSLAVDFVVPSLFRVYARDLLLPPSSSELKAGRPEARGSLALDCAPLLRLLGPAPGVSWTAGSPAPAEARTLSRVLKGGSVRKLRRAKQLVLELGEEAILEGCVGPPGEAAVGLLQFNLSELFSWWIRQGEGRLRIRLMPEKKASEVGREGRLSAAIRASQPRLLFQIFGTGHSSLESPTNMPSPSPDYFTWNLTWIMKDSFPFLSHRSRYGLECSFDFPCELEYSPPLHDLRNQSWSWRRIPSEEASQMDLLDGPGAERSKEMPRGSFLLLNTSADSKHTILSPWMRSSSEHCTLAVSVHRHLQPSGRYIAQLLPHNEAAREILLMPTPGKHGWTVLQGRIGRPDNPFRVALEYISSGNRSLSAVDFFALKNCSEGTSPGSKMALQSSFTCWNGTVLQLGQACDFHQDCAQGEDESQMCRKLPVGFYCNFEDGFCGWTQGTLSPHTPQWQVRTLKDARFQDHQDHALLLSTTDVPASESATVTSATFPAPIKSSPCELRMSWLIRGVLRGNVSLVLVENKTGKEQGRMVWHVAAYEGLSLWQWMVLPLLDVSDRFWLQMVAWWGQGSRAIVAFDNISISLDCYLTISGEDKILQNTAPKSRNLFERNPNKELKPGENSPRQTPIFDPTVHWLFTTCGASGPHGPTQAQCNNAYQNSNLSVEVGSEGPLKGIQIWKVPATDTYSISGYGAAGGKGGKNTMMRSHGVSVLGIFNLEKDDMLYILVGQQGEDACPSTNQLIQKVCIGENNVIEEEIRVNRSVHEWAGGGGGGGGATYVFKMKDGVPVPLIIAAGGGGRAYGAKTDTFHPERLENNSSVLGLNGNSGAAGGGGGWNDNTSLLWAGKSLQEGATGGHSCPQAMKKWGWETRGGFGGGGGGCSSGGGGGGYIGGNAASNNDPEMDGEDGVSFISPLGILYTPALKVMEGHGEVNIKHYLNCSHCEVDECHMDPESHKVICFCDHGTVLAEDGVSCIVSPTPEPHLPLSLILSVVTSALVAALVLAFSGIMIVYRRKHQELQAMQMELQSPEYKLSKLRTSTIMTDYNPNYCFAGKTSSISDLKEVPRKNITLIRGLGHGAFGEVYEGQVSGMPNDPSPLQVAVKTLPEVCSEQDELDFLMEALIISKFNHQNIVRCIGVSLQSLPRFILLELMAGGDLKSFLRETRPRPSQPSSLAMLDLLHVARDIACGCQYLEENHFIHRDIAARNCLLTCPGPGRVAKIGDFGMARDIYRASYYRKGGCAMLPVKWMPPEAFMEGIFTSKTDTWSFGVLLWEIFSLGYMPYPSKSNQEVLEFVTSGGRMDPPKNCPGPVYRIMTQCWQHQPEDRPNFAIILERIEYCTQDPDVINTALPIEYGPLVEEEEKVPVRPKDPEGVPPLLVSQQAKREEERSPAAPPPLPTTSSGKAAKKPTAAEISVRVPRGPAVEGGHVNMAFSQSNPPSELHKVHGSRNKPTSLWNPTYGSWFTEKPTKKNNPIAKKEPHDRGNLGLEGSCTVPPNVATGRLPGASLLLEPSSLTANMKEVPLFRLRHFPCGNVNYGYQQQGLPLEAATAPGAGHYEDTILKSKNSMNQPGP
In words: ALK HTRF kinase assay. Summed up: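 IC50 was obtained from a logistic fit of signal versus log inhibitor concentration, using pre- and post-transition baselines and a Hill slope. The signal reported tyrosine phosphorylation of a biotinylated peptide by recombinant human kinase, detected as Eu-to-APC energy transfer.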

In assay [2] the target is T2, human JAK2 (a.a. 828-1132) (Homo sapiens, UniProt O60674).
T2 construct: JAK2 (a.a. 828-1132); His tag (N); made in house; host or cells: insect cells (baculovirus)
T2 sequence (O60674 828-1132): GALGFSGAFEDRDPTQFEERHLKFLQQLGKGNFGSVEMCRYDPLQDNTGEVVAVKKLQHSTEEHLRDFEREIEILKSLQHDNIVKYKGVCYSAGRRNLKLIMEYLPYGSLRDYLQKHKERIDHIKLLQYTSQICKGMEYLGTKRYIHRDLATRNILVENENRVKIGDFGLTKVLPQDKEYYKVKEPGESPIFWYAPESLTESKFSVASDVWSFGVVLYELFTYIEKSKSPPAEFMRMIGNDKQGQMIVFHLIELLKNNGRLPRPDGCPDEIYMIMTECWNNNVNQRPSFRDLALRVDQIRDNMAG
Kind of assay: In vitro JAK kinase assay (HTRF, phosphorylation of a biotinylated peptide), JAK2. Summed up:
(§1)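 Kinase reactions ran at room temperature for 1 h with ATP matched per isoform (JAK1 90 μM, JAK2 30 μM, JAK3 3 μM). After an EDTA stop, the phosphorylated biotin-peptide was read by HTRF using Eu-Py20 and SA-APC after 40 min binding.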

Assay [3] deals with T3, human JAK1 (a.a. 837-1142) (Homo sapiens, UniProt P23458).
T3 construct: human JAK1 (a.a. 837-1142); His tag (N); made in house; host or cells: insect cells (baculovirus)
T3 sequence (P23458 849-1154): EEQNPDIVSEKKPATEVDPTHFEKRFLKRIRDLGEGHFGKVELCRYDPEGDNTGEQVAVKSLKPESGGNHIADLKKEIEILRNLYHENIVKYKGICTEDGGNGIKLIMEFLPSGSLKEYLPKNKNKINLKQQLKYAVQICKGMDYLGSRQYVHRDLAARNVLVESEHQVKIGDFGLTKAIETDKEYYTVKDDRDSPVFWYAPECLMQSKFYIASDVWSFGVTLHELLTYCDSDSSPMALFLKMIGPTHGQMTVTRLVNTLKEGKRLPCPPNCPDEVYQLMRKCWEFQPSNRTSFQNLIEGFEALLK
In words: In vitro JAK kinase assay (HTRF, phosphorylation of a biotinylated peptide), JAK1. Conditions: read-out: JAK1 IC50. In short, it runs like this: as §1
In general terms: Time-resolved FRET reads energy transfer from a long-lived donor to a nearby acceptor.

The next assay concerns the target TYK2 (Homo sapiens, UniProt P29597). In words: TYK2 kinase inhibition (Table A1).
Assay [4] concerns the target T4, human JAK3 (a.a. 781-1124) (Homo sapiens, UniProt P52333).
T4 construct: JAK3 (a.a. 781-1124); His tag (N); made in house; host or cells: insect cells (baculovirus)
Kind of assay: In vitro JAK kinase assay (HTRF, phosphorylation of a biotinylated peptide), JAK3. Summed up:
as §1

Where [5] appears, read: compound at a concentration of 500 nM or 1 mM (not specified), cells shown as percentage.
[6] abbreviates: compound at 500 nM or 1 mM, 90 μM ATP.
[7] abbreviates: method AA1 (30 μM ATP) or AA2 (1000 μM ATP), not stated per value.
Setting [8] is: method AA1 (90 μM ATP) or AA2 (1000 μM ATP), not stated per value.
Where [9] appears, read: method AA1 (3 μM ATP) or AA2 (1000 μM ATP), not stated per value.

Chain of TYK2 (P29597 whole entry): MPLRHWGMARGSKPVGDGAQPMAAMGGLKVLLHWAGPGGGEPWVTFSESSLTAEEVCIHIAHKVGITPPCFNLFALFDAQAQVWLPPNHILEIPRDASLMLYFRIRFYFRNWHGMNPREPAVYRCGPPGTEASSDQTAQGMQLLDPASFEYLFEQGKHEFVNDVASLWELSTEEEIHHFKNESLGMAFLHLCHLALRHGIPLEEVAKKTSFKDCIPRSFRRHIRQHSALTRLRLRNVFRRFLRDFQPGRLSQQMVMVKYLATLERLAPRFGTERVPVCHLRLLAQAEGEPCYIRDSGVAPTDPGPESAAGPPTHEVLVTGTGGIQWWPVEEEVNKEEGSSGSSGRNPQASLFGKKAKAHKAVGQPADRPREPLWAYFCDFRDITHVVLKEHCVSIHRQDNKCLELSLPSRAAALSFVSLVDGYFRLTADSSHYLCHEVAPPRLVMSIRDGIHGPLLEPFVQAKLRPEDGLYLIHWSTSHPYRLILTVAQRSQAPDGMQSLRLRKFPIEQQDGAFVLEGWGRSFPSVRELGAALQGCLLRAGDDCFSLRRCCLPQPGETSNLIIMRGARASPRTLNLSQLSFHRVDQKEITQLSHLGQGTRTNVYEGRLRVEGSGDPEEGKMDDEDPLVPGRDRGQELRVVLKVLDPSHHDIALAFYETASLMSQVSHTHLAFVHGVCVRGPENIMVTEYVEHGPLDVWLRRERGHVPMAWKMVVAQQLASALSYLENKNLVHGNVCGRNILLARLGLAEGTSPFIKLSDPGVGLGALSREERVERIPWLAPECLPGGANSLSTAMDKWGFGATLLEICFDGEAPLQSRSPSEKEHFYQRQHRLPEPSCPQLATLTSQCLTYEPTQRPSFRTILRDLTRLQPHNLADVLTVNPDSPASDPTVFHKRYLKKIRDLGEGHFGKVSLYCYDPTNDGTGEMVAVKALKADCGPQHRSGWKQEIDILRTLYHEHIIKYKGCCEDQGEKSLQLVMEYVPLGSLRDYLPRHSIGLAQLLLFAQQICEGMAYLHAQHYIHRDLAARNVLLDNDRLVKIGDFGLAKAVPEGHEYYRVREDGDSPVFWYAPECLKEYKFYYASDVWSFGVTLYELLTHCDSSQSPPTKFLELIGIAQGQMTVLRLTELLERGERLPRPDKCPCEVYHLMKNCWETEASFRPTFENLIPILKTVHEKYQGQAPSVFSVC
T4 sequence (P52333 781-1124): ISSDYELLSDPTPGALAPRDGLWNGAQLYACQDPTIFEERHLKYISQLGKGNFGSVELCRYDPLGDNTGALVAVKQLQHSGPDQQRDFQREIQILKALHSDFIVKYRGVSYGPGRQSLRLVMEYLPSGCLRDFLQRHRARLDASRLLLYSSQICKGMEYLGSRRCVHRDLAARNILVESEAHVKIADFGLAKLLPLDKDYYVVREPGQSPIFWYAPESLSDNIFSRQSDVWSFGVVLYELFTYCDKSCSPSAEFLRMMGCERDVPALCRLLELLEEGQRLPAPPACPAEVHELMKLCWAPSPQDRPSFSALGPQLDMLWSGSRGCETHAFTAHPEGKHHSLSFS

`N#Cc1ccc(NC(=O)Nc2cc3cc(c2)Nc2nc(ncc2Cl)Nc2cccc(c2)CC3)cc1` [Example B212, N-[6-Chloro-2,4,8,22-tetraazatetracyclo[14.3.1.1(3,7).1(9,13)]docosa-1(20),3(22),4,6,9(21),10,12,16,18-nonaen-11-yl]-N′-(4-cyanophenyl)urea trifluoroacetate]: the “ALK % of inhibition at a concentration of 500 nM or 1 mM” value (“ALK % of inhibition” for short) in assay [1] (setting [5]) is 14%. Moreover, the IC50 in assay [2] (Table B1) came out at 238 nM; in assay [3] (Table B1) it was 400 nM; on TYK2 (Table B1), 500 nM; in assay [4] (Table B1), 312 nM.

For `Clc1cnc2nc1Nc1cccc(c1)CCSCc1cccc(c1)N2` [Example D34, 6-Chloro-16-thia-2,4,8,24-tetraazatetracyclo[16.3.1.1(3,7).1(9,13)]tetracosa-1(22),3(24),4,6,9(23),10,12,18,20-nonaene trifluoroacetate], the IC50 in assay [1] (Table D1, 90 μM ATP) was > 1000 nM; in assay [2] (Table D1) it was 91 nM; in assay [3] (Table D1), 123 nM; against TYK2 (Table D1), 211 nM; in assay [4] (Table D1) it was 136 nM.

Regarding `CC1(C)Cc2cccc(NC(=O)Nc3ccc4cc3CCc3cccc(c3)Nc3ncc(Cl)c(n3)N4)c2O1` [Example B129, N-[6-Chloro-2,4,8,22-tetraazatetracyclo[14.3.1.1(3,7).1(9,13)]docosa-1(20),3(22),4,6,9(21),10,12,16,18-nonaen-12-yl]-N′-(2,2-dimethyl-2,3-dihydro-1-benzofuran-7-yl)urea trifluoroacetate], in assay [1] (setting [5]), the “ALK % of inhibition” value is on record as 7.3%. Moreover, the IC50 in assay [2] (Table B1) turned out to be 9.5 nM; in assay [3] (Table B1), 3.7 nM; against TYK2 (Table B1), 32 nM; in assay [4] (Table B1), 184 nM.

On to `N#Cc1ccccc1S(=O)(=O)Nc1cc2cc(c1)Nc1nc(ncc1Cl)Nc1cccc(c1)CC2` [Example B216, N-[6-Chloro-2,4,8,22-tetraazatetracyclo[14.3.1.1(3,7).1(9,13)]docosa-1(20),3(22),4,6,9(21),10,12,16,18-nonaen-11-yl]-2-cyanobenzenesulfonamide trifluoroacetate], for which the “ALK % of inhibition” value in assay [1] (setting [5]) was found to be 1.3%. Besides, the IC50 was determined as 29 nM in assay [2] (Table B1), 48 nM in assay [3] (Table B1), 66 nM against TYK2 (Table B1) and 166 nM in assay [4] (Table B1).

For the compound `O=C(CN1CCNCC1)Nc1ccc2cc1CCc1cncc(c1)Nc1ncc(Cl)c(n1)N2` [Example A115, N-[6-Chloro-2,4,8,18,22-pentaazatetracyclo[14.3.1.1(3,7).1(9,13)]docosa-1(20),3(22),4,6,9(21),10,12,16,18-nonaen-12-yl]-2-piperazin-1-acetamide tetrakis(trifluoroacetate)], in assay [1] (setting [6]), the “ALK % of inhibition” value came out at 20%. In addition, the IC50 in assay [2] (setting [7]) worked out at 42 nM; in assay [3] (setting [8]), 34 nM; against TYK2, 45 nM; in assay [4] (setting [9]), 300 nM.

As to `Cn1ccc2c(NC(=O)N3CCC(C(=O)Nc4ccc5cc4CCc4cccc(c4)Nc4ncc(Cl)c(n4)N5)CC3)cccc21` [Example A41, N(4)-[6-Chloro-2,4,8,22-tetraazatetracyclo[14.3.1.1(3,7).1(9,13)]docosa-1(20),3(22),4,6,9(21),10,12,16,18-nonaen-12-yl]-N(1)-(1-methyl-1H-indol-4-yl)piperidine-1,4-dicarboxamide trifluoroacetate], in assay [1] (setting [6]), the “ALK % of inhibition” value was 58%. Further, the IC50 was determined as 12 nM in assay [2] (setting [7]), 5.8 nM in assay [3] (setting [8]), 102 nM on TYK2 and 157 nM in assay [4] (setting [9]).

Consider `Cc1cc(C(=O)Nc2ccc3cc2CCc2cccc(c2)Nc2ncc(Cl)c(n2)N3)nc(Cl)n1` [Example B280, 2-Chloro-N-[6-chloro-2,4,8,22-tetraazatetracyclo[14.3.1.1(3,7).1(9,13)]docosa-1(20),3(22),4,6,9(21),10,12,16,18-nonaen-12-yl]-6-methylpyrimidine-4-carboxamide bis(trifluoroacetate)], for which the “ALK % of inhibition” value in assay [1] (setting [5]) worked out at 4.6%. The IC50 in assay [2] (Table B1) is 446 nM; in assay [3] (Table B1), 276 nM; against TYK2 (Table B1), 1790 nM; in assay [4] (Table B1), > 10000 nM.
